The structures appear in SMILES notation. pIC50: −log10 of the molar value.

One data set relates to SK-BR-3. Nature of the data set: Antiproliferative activity against human SK-BR-3 cells assessed as reduction in cell growth incubated for 72 hrs by SRB assay. Format: functional, cell-based. Conditions: SK-BR-3, 72 h. A general note: The SRB assay estimates cell density from bound dye.
The nature of data set [1]: Cytotoxicity against human HDF cells assessed as reduction in cell growth incubated for 72 hrs by SRB assay. The format is cell-based. Conditions: HDFa.
The test system of a further data set is A549. Nature of the data set: Antiproliferative activity against human A549 cells assessed as reduction in cell growth incubated for 72 hrs by SRB assay. The format is functional, cell-based. Conditions: A549, 72 h.
A short description of data set [2]: Selectivity index, ratio of IC50 for cytotoxicity against human HDF cells to IC50 for cytotoxicity against human SK-OV-3 cells.
A short description of data set [3]: Selectivity index, ratio of IC50 for cytotoxicity against human HDF cells to IC50 for cytotoxicity against human PC-3 cells. The format is toxicity, cell-based. The conditions noted are these: HDF cells versus PC-3 cells, read-out: Ratio IC50.
The next data set relates to PC-3. Nature of the data set: Antiproliferative activity against human PC-3 cells assessed as reduction in cell growth incubated for 72 hrs by SRB assay. Format: functional, cell-based. The conditions noted are these: PC-3, 72 h.
A short description of data set [4]: Selectivity index, ratio of IC50 for cytotoxicity against human HDF cells to IC50 for cytotoxicity against human A549 cells. The format is toxicity, cell-based. The conditions noted are these: HDF cells versus A549 cells, read-out: Ratio IC50.
Data set [5] can be described thus: Selectivity index, ratio of IC50 for cytotoxicity against human HDF cells to IC50 for cytotoxicity against human U-87 MG cells. Format: toxicity, cell-based. Conditions: HDF cells versus U-87 MG cells, read-out: Ratio IC50.
The test system of another data set is SK-OV-3. Nature of the data set: Antiproliferative activity against human SK-OV-3 cells assessed as reduction in cell growth incubated for 72 hrs by SRB assay. The format is functional, cell-based. Conditions: SK-OV-3, 72 h.
Data set [6] is described as follows: Selectivity index, ratio of IC50 for cytotoxicity against human HDF cells to IC50 for cytotoxicity against human SK-BR-3 cells. Conditions: HDF cells versus SK-BR-3 cells, read-out: Ratio IC50. Format: toxicity, cell-based.
For the next data set, the system named is U-87 MG. Nature of the data set: Antiproliferative activity against human U-87 MG cells assessed as reduction in cell growth incubated for 72 hrs by SRB assay. The format is functional, cell-based, U-87MG ATCC.

Broadly, the pIC50 is the negative decadic logarithm of the IC50, by convention in mol/L. Regarding `CO[C@H]1/C=C\C=C(/C)C(=O)NC2=CC(=O)C(NCCO)=C(C[C@@H](C)C[C@H](OC)[C@H](O)[C@@H](C)/C=C(\C)[C@@H]1OC(N)=O)C2=O`, the pIC50 was 5.95 in the data set on SK-BR-3; 5.40 in data set [1]; 5.98 with A549; 5.86 in the data set on PC-3; 5.95 in the data set with SK-OV-3; 5.90 with U-87 MG. Besides, the “Ratio IC50” value in data set [2] is reported as 3.58. Further, the selectivity ratio amounted to 2.9 in [3], 3.78 in [4], 3.18 in data set [5] and 3.51 in data set [6].
`C#CCNC1=C2C[C@@H](C)C[C@H](OC)[C@H](O)[C@@H](C)/C=C(\C)[C@H](OC(N)=O)[C@@H](OC)/C=C\C=C(/C)C(=O)NC(=CC1=O)C2=O`: the pIC50 with SK-BR-3 is 5.35; in data set [1] it was 5.10; in the data set on A549, 5.34; in the data set on PC-3, 5.44; in the data set with SK-OV-3 it was 5.38; in the data set with U-87 MG, 5.40. Also, the “Ratio IC50” value in [2] is given as 1.9. The selectivity ratio in data set [3] turned out to be 2.18; in data set [4] it was 1.74; in [5], 1.97; in [6], 1.77.
In the case of `CO[C@H]1/C=C\C=C(/C)C(=O)NC2=CC(=O)C(NCC3COCCOCCOCCOCCO3)=C(C[C@@H](C)C[C@H](OC)[C@H](O)[C@@H](C)/C=C(\C)[C@@H]1OC(N)=O)C2=O` (some centres undefined), the pIC50 is 5.24 in data set [1]; 5.68 with A549; 5.63 with PC-3; 5.53 in the data set on SK-OV-3; 5.52 with U-87 MG. For the same compound, the “Ratio IC50” value in data set [2] is given as 1.94. Further, the selectivity ratio worked out at 2.26 in data set [3], 2.75 in data set [4], 1.91 in data set [5] and 2.48 in data set [6].
Regarding `CO[C@H]1/C=C\C=C(/C)C(=O)NC2=CC(=O)C(NCc3ccc(CS(N)(=O)=O)cc3)=C(C[C@@H](C)C[C@H](OC)[C@H](O)[C@@H](C)/C=C(\C)[C@@H]1OC(N)=O)C2=O`, the pIC50 is 5.69 in the data set with SK-BR-3; 5.30 in data set [1]; 5.69 with A549; 5.75 with PC-3; 5.70 with SK-OV-3; 5.56 in the data set with U-87 MG. Further, the “Ratio IC50” value in [2] was found to be 2.48. In addition, the selectivity ratio in data set [3] was found to be 2.9; in [5], 1.81; in [6] it was 2.41.
`CO[C@H]1/C=C\C=C(/C)C(=O)NC2=CC(=O)C(NC3CCN(C(C)=O)CC3)=C(C[C@@H](C)C[C@H](OC)[C@H](O)[C@@H](C)/C=C(\C)[C@@H]1OC(N)=O)C2=O`: the pIC50 in the data set with SK-BR-3 is 5.99; in data set [1] it was 5.38; in the data set with A549, 6.01; with PC-3 it was 5.78; in the data set on SK-OV-3 it was 5.76; in the data set with U-87 MG, 5.95. The “Ratio IC50” value in data set [2] worked out at 2.42. Further, the results for the selectivity ratio in data set [3], in [4] and in data set [6] were 2.52, 4.32 and 4.07, respectively.
For `CO[C@H]1/C=C\C=C(/C)C(=O)NC2=CC(=O)C(NCCCCO)=C(C[C@@H](C)C[C@H](OC)[C@H](O)[C@@H](C)/C=C(\C)[C@@H]1OC(N)=O)C2=O`, the pIC50 in the data set with SK-BR-3 is 5.79; in data set [1], 5.45; with A549, 5.79; in the data set on PC-3, 5.78; in the data set on SK-OV-3, 5.80; with U-87 MG it was 5.80. Also, the “Ratio IC50” value in [2] worked out at 2.21. Besides, the selectivity ratio stood at 2.11 in [3], 2.15 in data set [4], 2.19 in data set [5] and 2.15 in [6].
As to `COc1c(O)cc2cc1C[C@@H](C)C[C@H](OC)[C@H](O)[C@@H](C)/C=C(\C)[C@H](OC(N)=O)[C@@H](OC)CC/C=C(\C)C(=O)N2` [REBLASTATIN], the results for the pIC50 in the data set with SK-BR-3, in the data set with PC-3 and in the data set on SK-OV-3 were 6.22, 7.74 and 6.90, respectively. Also, in data set [2], the “Ratio IC50” value is on record as 54. The selectivity ratio stood at 54 in data set [3] and 53 in data set [6].

The values above are taken from ChEMBL document CHEMBL4765380, “Synthesis, structure and anticancer activity of new geldanamycin amine analogs containing C(17)- or C(20)- flexible and rigid arms as well as closed or open ansa-bridges” (Eur J Med Chem, 2020).
